According to patent US4554355A, “Heterocyclic compounds as antiallergic agents” (American Home Products Corporation, priority 1984, dated 1985):
Read-outs that look alike come from different tables or passages of the source.

Tests used:
[1] = test system: synthesis of 5-HETE and LTB4 by rat glycogen-elicited polymorphonuclear leukocytes; assay: inhibition of the synthesis of 5-HETE and LTB4 by rat glycogen-elicited polymorphonuclear leukocytes; assay type: cell-based, rat (female Wistar); conditions: rat PMN, A23187 10 μM; for IC50: Leukocyte, 10 min preincubation
Protocol: This is especially true with respect to 5,12-diHETE, which is also denoted as LTB4 [see Ford-Hitchinson, J. Roy. Soc. Med., 74, 831 (1981)]. The assay of this Example measures the ability of the compounds of the invention to inhibit the synthesis of 5-HETE and LTB4 by rat glycogen-elicited polymorphonuclear leukocytes.
The assay is carried out as follows:
Peritoneal PMN are obtained from female Wistar rats (150-250 g) that received an i.p. injection of 6% glycogen (10 ml). After 24 hours, rats are killed by CO2 asphyxiation and peritoneal cells are harvested by peritoneal lavage using Ca^++ and Mg^++ free Hanks' balanced salt solution (HBSS). The peritoneal exudate is centrifuged at 400 g for 10 minutes. After centrifugation, the lavaged fluid is removed and the cell pellet is resuspended in HBSS containing Ca^++ and Mg^++ and 10 mM L-cysteine at a concentration of 2×10^7 cells/ml. To 1 ml portions of cell suspension, test drugs or vehicle are added and incubated at 37° C. for 10 minutes. Following this preincubation, the calcium ionophore (10 μM), A23187, is added together with 0.5 μCi[^14 C]arachidonic acid and further incubated for 10 minutes. The reaction is stopped by the addition of ice cold water (3 ml) and acidifying to pH 3.5. Lipoxygenase products are then extracted twice into diethyl ether. The pooled ether extracts are evaporated to dryness under nitrogen and the residue is redissolved in a small volume of methanol and spotted on aluminum backed pre-coated thin layer chromatographic plates. The samples are then co-chromatographed with authentic reference 5-HETE, 12-HETE and 5,12-diHETE in the solvent system--hexane:ether:acetic acid (50:50:3). After chromatography, the areas associated with 5-HETE and 5,12-diHETE standards are identified by autoradiography, cut out and quantitated by liquid scintillation.
Results are expressed as % inhibition of [^14 C]5-HETE and [^14 C]LTB4 (5,12-HETE) synthesis. [formula]
Testing compounds of the invention in this assay and using the antioxidant 3-amino-1-[m-(trifluoromethyl)phenyl]-2-pyrazoline (BW755C) as a standard, the following results are obtained.

[2] = test system: LTD4 induced bronchospasm; assay: in vivo inhibition of bronchospasm induced in guinea pigs by exogenously administered leukotriene LTD4; parameters: species or system guinea pig (male Hartley strain); conditions: guinea pig, 50 mg/kg intraduodenal, 10 minutes before induction
Protocol: The assay of this Example measures the in vivo ability of the compounds of the invention to inhibit the bronchospasm induced in guinea pigs by the exogenously administered leukotrienes C4 and/or D4. This assay is essentially a measure of the SRS-A antagonist properties of the compounds tested.
This assay is carried out as follows:
Male Hartley strain guinea pigs (350-600 g) are anesthetized with pentobarbital sodium (50 mg/kg, i.p.). The jugular vein is cannulated for injection of drugs and the carotid artery for monitoring blood pressure. The trachea is cannulated for artificial ventilation by a miniature Starling pump and for indirect measurement of respiratory volume changes as described infra. Additional pentobarbital sodium (15 mg/kg, i.v.) is administered to arrest spontaneous respiration. Submaximal bronchoconstrictor responses are established in control animals by varying the dose-levels of leukotriene. Intravenous dose-levels for LTC4 range from 1 to 2 μg/kg and for LTD4 the range is from 0.3 to 1 μg/kg. The aerosol bronchoprovocation dose for LTC4 is generated from 1.6 μM solution and for LTD4 from a 2.0 μM solution.
Test drugs are administered either intravenously, intraduodenally, by aerosol or orally at 1 or 10 minutes before induction of bronchospasm by administration of either LTC4 or LTD4 at the predetermined dose-levels. Aerosols of soluble drugs or leukotrienes are produced in-line for 10 seconds only by actuation of an ultrasonic nebulizer (Monaghan). Aerosolized drug dosage is expressed in terms of solution concentration and by a fixed aerosol exposure time (approximately 10 seconds). Control animals receive saline in place of drug.
Respiratory volume changes are determined by a calibrated piston whose travel is recorded, via a linear transducer, on a Beckman Dynograph recorder. Maximal bronchoconstrictor volume is determined by clamping off the trachea at the end of the experiment. Overflow volumes at 1, 3 and 5 minutes are obtained from the recorded charts.
The overflow volume at 1, 3 and 5 minutes is expressed as a percentage of maximal bronchoconstriction. Combined group values are used from each of these time intervals to determine the inhibitory effect of drugs. [formula] Students t-test for unpaired data is used to determine statistical significance. Dose response curves are generated and ED50 doses are interpolated from the regression lines.
Results for a compound of the invention in this assay, using LTD4 for induction of bronchospasm, is given below: […]

Row | Structure (SMILES) | % Inhibition at 100 μm, 5-HETE ([1]; [14C]5-HETE synthesis) | % Inhibition at 100 μm, LTB4 ([1]; [14C]LTB4 synthesis) | % Inhibition Overflow Volume at 1 min. [2] | % Inhibition Overflow Volume at 3 min. [2] | % Inhibition Overflow Volume at 5 min. [2] | IC50 ([1]; [14C]5-HETE synthesis, read-out: 50% Inhibitory Concentration (IC50), 5-HETE) | IC50 ([1]; [14C]LTB4 synthesis, read-out: 50% Inhibitory Concentration (IC50), LTB4)
1 | COC(=O)C1CC(=O)N(c2cccc(OCc3nc4ccccc4n3C)c2)C1 (centres unmarked) [Example 2A, N-[3-[(1-methyl-2-benzimidazolyl)methoxy]phenyl]pyrrolidin-2-on-4-carboxylic acid, methyl ester] | 34.60% | 32.30% | 56% | 20% | 18% | – | –
2 | COC(=O)C1CC(=O)N(c2cccc(OCc3nc4ccccc4s3)c2)C1 (centres unmarked) [Example 1, N-[3-[(2-Benzthiazolyl)methoxy]phenyl]pyrrolidin-2-on-4-carboxylic acid, methyl ester] | 94.30% | 84.50% | 72% | 66% | 68% | – | –
3 | COC(=O)C1CC(=O)N(c2cccc(OCc3nc4ccccc4o3)c2)C1 (centres unmarked) [Example 2B, N-[3-[(2-benzoxazolyl)methoxy]phenyl]pyrrolidin-2-on-4-carboxylic acid, methyl ester] | 87.20% | 82.80% | 26% | 12% | 15% | – | –
4 | NC1=NN(c2cccc(C(F)(F)F)c2)CC1 [BW755C, 3-amino-1-[m-(trifluoromethyl)phenyl]-2-pyrazoline, reference compound] | – | – | – | – | – | 43 µM | 30 µM
